Laboratory results as given in paper PMC11272826, “Metabolism of alcohol ethoxylates (AEs) in rat, hamster, and human hepatocytes and liver S9: a pilot study for metabolic stability, metabolic pathway, and metabolites identification in vitro and in silico” (Archives of Toxicology, 2024).

How the values were obtained:
adult males = tested on: adult males; design: method as in Drotman [1980]; conditions: ref Drotman [1980], cited from earlier work; for Amounts in the blood / Radioactivity recovered after 144 h in urine, feces, and air: human males, 50 mg capsule; for Excreted within the first 24 h: radiolabeled, human male volunteers
[1] = tested on: female Colworth Wistar rats; design: method as in Unilever [1978]; conditions: 14C-labelled, oral, rat, ref Unilever [1978], cited from earlier work
[2] = Metabolite profiling by LC-MS in liver S9
Description: (§1) Calibration curves were generated using an external standard.

[3] = Metabolite profiling by LC-MS in buffer (incubation without cells); conditions: 120 min
Method: (§2) The hepatocytes were thawed and re-suspended in Celsis InVitro KHB medium (pH 7.4). […] The samples were collected and stored at − 20 °C for further analysis.
(§3) The in vitro metabolism of the five individual homologue AEs (i.e. C8EO4, C10EO5, C12EO4, C16EO8, and C18EO3) was analyzed by liquid chromatography–mass spectrometry (LC–MS). The UPLC-Q-Exactive Orbitrap MS system consisted of a Thermo Vanquish Horizon UHPLC with an autosampler, vacuum degasser, photodiode array (PDA) detector (210–500 nm), and column oven coupled to a Q-Exactive Orbitrap Focus mass spectrometer (Thermo Fisher Scientific, Waltham, MA, USA). The analytical column used was a Waters Acquity BEH C8 2.1 × 50 mm with 1.7 particle size (Waters Corp, Milford, MA, USA). The temperature of the column oven was 40 °C, and the injection volume was 4 μl. The aqueous eluent (A) was 0.1% formic acid (B) was acetonitrile. […] The eluent flow rate was 0.5 ml/min and the flow was directed to the MS through a PDA detector. The data acquisition was performed using positive Electrospray Ionization (ESI+) polarity with a capillary voltage of 3000 V. Capillary temperature was 320 °C and auxiliary gas temperature was 500 °C. The mass spectrometer was operated in the data-dependent MS2 mode, which acquires full-scan MS and MS/MS fragment ion data in the same run. Scan was performed with a resolution of 35,000 (full width at half maximum at m/z 200), while an Automated Gain Control target of a million ions, maximum injection time of 100 ms, and a scan range of 100–1000 m/z were used. […] Nitrogen was used as a sheath gas with 50 units, auxiliary gas with 10 units and as a sweep gas with 5 units. Ion chromatograms were extracted from the total ion chromatograms using calculated monoisotopic accurate masses with 5 mDa window. Calibration curves were generated using an external standard. The data were processed with Thermo Xcalibur 4.1.31.9 software.

[4] = Metabolic stability in cryopreserved hepatocytes (disappearance, half-life, CLint); conditions: Sprague Dawley, rat, pooled cryopreserved hepatocytes, pH 7.4
Method: (§4) The metabolic stability assay was performed in a 48-well plate format (duplicate with cells and single without cells).
as §2
(§5) The UPLC-Q-Exactive Orbitrap MS system consisted of a Thermo Vanquish Horizon UHPLC with an autosampler, vacuum degasser, photodiode array (PDA) detector (210–500 nm), and column oven coupled to a Q-Exactive Orbitrap Focus mass spectrometer (Thermo Fisher Scientific, Waltham, MA, USA). The analytical column used was a Waters Acquity BEH C8 2.1 × 50 mm with 1.7 particle size (Waters Corp, Milford, MA, USA). The temperature of the column oven was 40 °C, and the injection volume was 4 μl. The aqueous eluent (A) was 0.1% formic acid (B) was acetonitrile. […] The eluent flow rate was 0.5 ml/min and the flow was directed to the MS through a PDA detector. The data acquisition was performed using positive Electrospray Ionization (ESI+) polarity with a capillary voltage of 3000 V. Capillary temperature was 320 °C and auxiliary gas temperature was 500 °C. The mass spectrometer was operated in the data-dependent MS2 mode, which acquires full-scan MS and MS/MS fragment ion data in the same run. Scan was performed with a resolution of 35,000 (full width at half maximum at m/z 200), while an Automated Gain Control target of a million ions, maximum injection time of 100 ms, and a scan range of 100–1000 m/z were used. […] Nitrogen was used as a sheath gas with 50 units, auxiliary gas with 10 units and as a sweep gas with 5 units. Ion chromatograms were extracted from the total ion chromatograms using calculated monoisotopic accurate masses with 5 mDa window. Calibration curves were generated using an external standard. The data were processed with Thermo Xcalibur 4.1.31.9 software.
(§6) The first-order rate constants k (min^−1) of the metabolism were obtained from the slope of time versus ln (% remaining) plots using Excel software. All time points (log-scale) were used in fitting the rate constant k based on visual inspection of the curves.
(§7) The in vitro half-life (t1/2) of the test compound(s) is defined as: t1/2=ln2/k
(§8) CLint,inc = k*V/(M), where V is the volume of the incubation and M is the number of cells or amount of S9 protein in the incubation.

hamster hepatocytes [5] = assay: Metabolite profiling by LC-MS in hepatocytes; conditions: for Number of metabolites detected: hamster hepatocytes
Method: as §2, §3

rat hepatocytes [6] = assay: Metabolite profiling by LC-MS in hepatocytes; conditions: for Number of metabolites detected: rat hepatocytes
Method: as §2, §3

human hepatocytes [7] = assay: Metabolite profiling by LC-MS in hepatocytes; conditions: for Number of metabolites detected: human hepatocytes
Method: as §2, §3

human hepatocytes [8] = assay: Metabolic stability in cryopreserved hepatocytes (disappearance, half-life, CLint); conditions: human hepatocytes, range over 1 and 10 µM
Method: as §4, §2, §5, §6, §7, §8

[9] = as above; conditions: human, pooled cryopreserved hepatocytes, pH 7.4
Method: as §4, §2, §5, §6, §7, §8

hamster hepatocytes [10] = assay: as above; conditions: hamster hepatocytes, range over 1 and 10 µM
Method: as §4, §2, §5, §6, §7, §8

[11] = as above; conditions: Syrian, hamster, pooled cryopreserved hepatocytes, pH 7.4
Method: as §4, §2, §5, §6, §7, §8

[12] = Metabolic stability in liver S9 fraction (disappearance, half-life, CLint); conditions: for half-life at 1 µM / microsomal CLint at 1 µM / half-life at 10 µM / microsomal CLint at 10 µM: pooled liver S9, pH 7.4
Method: as §1
Intrinsic in vitro clearance was calculated as follows: […]

[13] = as above; conditions: for half-life at 1 µM: pooled liver S9, pH 7.4, Half-lives t1/2, Liver S9, 1 μM
Method: The metabolic stability assay was performed in a 48-well plate format (duplicate with cofactors and single without cofactors).
Each incubation contained test compound (final concentration of 1 or 10 µM), liver S9 (1.5 mg/ml protein content), Cofactors (1 mM NADPH + 1 mM UDPGA + 0.2 mM PAPS), MgCl2 (2 mM), and potassium phosphate buffer (100 mM at pH 7.4). […] The incubation was carried out at 37 °C for 60 min with and without cofactors. […] The samples were collected and stored at − 20 °C for further analysis.
as §3, §6, §7, §8

rat hepatocytes [14] = assay: Metabolic stability in cryopreserved hepatocytes (disappearance, half-life, CLint); conditions: rat hepatocytes, range over 1 and 10 µM
Method: as §4, §2, §5, §6, §7, §8

[15] = metabolite profile of C16EO8, 10 µM incubation, 60 min, with cofactors
[16] = metabolite profile of C16EO8, 10 µM incubation, 60 min, without cofactors
[17] = metabolite profile of C16EO8, 10 µM incubation, 120 min
[18] = metabolite profile of C10EO5, 10 µM incubation, 60 min
[19] = metabolite profile of C10EO5, 10 µM incubation, 120 min

| SMILES | Amounts in the blood (adult males) [%] | Radioactivity recovered after 144 h in urine, feces, and air (adult males) | Excreted within the first 24 h (adult males) [%] | Number of metabolites detected ([2]; human liver S9) | half-life at 1 µM [4] [min] | half-life at 10 µM [4] [min] | Number of metabolites detected (hamster hepatocytes [5]) | Number of metabolites detected (rat hepatocytes [6]) | Number of metabolites detected (human hepatocytes [7]) | Initial concentration remaining after 120 min incubation (human hepatocytes [8]) | half-life at 1 µM [9] [min] | half-life at 10 µM [9] [min] | Initial concentration remaining after 120 min incubation (hamster hepatocytes [10]) | half-life at 1 µM [11] [min] | half-life at 10 µM [11] [min] | half-life at 1 µM ([12]; Sprague-Dawley, rat) [min] | microsomal CLint at 1 µM ([12]; Sprague-Dawley, rat) [µL/min/mg] | half-life at 1 µM ([12]; Syrian, hamster) [min] | microsomal CLint at 1 µM ([12]; Syrian, hamster) [µL/min/mg] | microsomal CLint at 1 µM ([13]; human, pooled liver S9, pH 7.4) [µL/min/mg] | also measured |
| --- | --- | --- | --- | --- | --- | --- | --- | --- | --- | --- | --- | --- | --- | --- | --- | --- | --- | --- | --- | --- | --- |
| CCCCCCCCCCCCCOCCOCCOCCOCCOCCOCCO [C13EO6] | ≤ 1 | 83–89% | 75 |  |  |  |  |  |  |  |  |  |  |  |  |  |  |  |  |  |  |
| CCCCCCCCCCCCOCCOCCOCCOCCOCCOCCO [C12EO6] | ≤ 1 | 83–89% | 75 |  |  |  |  |  |  |  |  |  |  |  |  |  |  |  |  |  | Total recovery in urine, feces, air, and carcass of the administered compound ([1]; 4 days): ~100%; 14C in air [1]: about 10% |
| CCCCCCCCCCCCCCCCOCCOCCOCCOCCOCCOCCOCCOCCO [C16EO8] |  |  |  | 33 | 6.6 | 9.2 | 32 | 32 | 32 | 11–36% | 39 | 85 | 4–5% | 27 | 30 | 16 | 29.6 | 118 | 3.92 | 3.33 | Number of metabolites detected ([2]; hamster liver S9): 33; Liver S9 with cofactors, % Hamster (percentage of the total peak area) [2, 15]: 82.7%; Liver S9 with cofactors, % Human (percentage of the total peak area) [2, 15]: 72.0%; Liver S9 with cofactors, % Rat (percentage of the total peak area) [2, 15]: 85.8%; Liver S9 without cofactors, % Hamster (percentage of the total peak area) [2, 16]: 97.4%; Liver S9 without cofactors, % Human (percentage of the total peak area) [2, 16]: 96.6%; Liver S9 without cofactors, % Rat (percentage of the total peak area) [2, 16]: 98.7%; Number of metabolites detected ([2]; rat liver S9): 33; Hepatocytes, % Buffer (percentage of the total peak area) ([3]; metabolite profile of C16EO8, 10 µM incubation, buffer without cells): 29.7%; Hepatocytes, % Hamster (percentage of the total peak area) (hamster hepatocytes [5]; [17]): 10.6%; Hepatocytes, % Rat (percentage of the total peak area) (rat hepatocytes [6]; [17]): 1.0%; Hepatocytes, % Human (percentage of the total peak area) (human hepatocytes [7]; [17]): 30.3%; half-life at 1 µM ([13]; human): 139 min |
| CCCCCCCCCCOCCOCCOCCOCCOCCO [C10EO5] |  |  |  | 26 | 2.9 | 1.9 | 28 | 28 | 28 | 0.2–4% | 4 | 4.9 | 0.2–4% | 4.5 | 10.6 | 8.3 | 55.7 | 8.1 | 57.3 | 234 | Percentage of the total peak area, Liver S9 without cofactors, Hamster [2, 18]: 97.9%; Percentage of the total peak area, Liver S9 without cofactors, Human [2, 18]: 97.7%; Percentage of the total peak area, Liver S9 without cofactors, Rat [2, 18]: 98.2%; Percentage of the total peak area, Hepatocytes, Buffer ([3]; metabolite profile of C10EO5, 10 µM incubation without cells): 98.7%; Initial concentration remaining after 120 min incubation (rat hepatocytes [14]): 0.2–4%; Percentage of the total peak area, Hepatocytes, Hamster (hamster hepatocytes [5]; [19]): 0.7%; Percentage of the total peak area, Hepatocytes, Rat (rat hepatocytes [6]; [19]): 0.8%; Percentage of the total peak area, Hepatocytes, Human (human hepatocytes [7]; [19]): 0.3%; half-life at 10 µM ([12]; Sprague-Dawley, rat): 12 min; microsomal CLint at 10 µM ([12]; Sprague-Dawley, rat): 38 µL/min/mg; half-life at 10 µM ([12]; Syrian, hamster): 12 min; microsomal CLint at 10 µM ([12]; Syrian, hamster): 40 µL/min/mg; Initial concentration remaining after 60 min incubation ([12]; hamster liver S9, range over 1 and 10 µM): 0.01–4%; Initial concentration remaining after 60 min incubation ([12]; rat liver S9, range over 1 and 10 µM): 0.01–4%; Initial concentration remaining after 60 min incubation ([13]; human liver S9, range over 1 and 10 µM): 0.01–4%; microsomal CLint at 10 µM ([13]; human, pooled liver S9, pH 7.4): 170 µL/min/mg; half-life at 1 µM ([13]; human): 2 min; half-life at 10 µM ([13]; human, pooled liver S9, pH 7.4, Half-lives t1/2, Liver S9, 10 μM): 2.7 min |
